Laboratory results taken from ChEMBL document CHEMBL4325851, “Synthesis of aminopyrazole analogs and their evaluation as CDK inhibitors for cancer therapy” (Bioorg Med Chem Lett, 2018).

Assays:
[1] = target: Cyclin-dependent kinase 5/CDK5 activator 1 (Homo sapiens) (UniProt Q00535+Q15078); assay: Inhibition of CDK5/p35 (unknown origin) at 100 nM in presence of ATP relative to control; assay type: protein-complex assay
MIA PaCa-2 [2] = assay: Induction of apoptosis in human MIAPaCa2 cells assessed as increase in caspases 3/7 activity at 10 uM after 12 hrs by Caspase-Glo assay relative to control; assay type: functional
BXPC-3 = assay: Antiproliferative activity against human BxPC3 cells after 72 hrs by prestoblue assay; assay type: functional, cell-based; conditions: BXPC-3, 72 h
MIA PaCa-2 [3] = assay: Antiproliferative activity against human MIAPaCa2 cells after 72 hrs by prestoblue assay; assay type: functional, cell-based; conditions: MIA PaCa-2, 72 h
[4] = Antiproliferative activity against human SUIT2 cells after 72 hrs by prestoblue assay; assay type: functional, cell-based; conditions: SUIT-2, 72 h
[5] = Antiproliferative activity against human S2-013 cells after 72 hrs by prestoblue assay; assay type: functional, cell-based
ASPC1 = assay: Antiproliferative activity against human AsPC1 cells after 72 hrs by prestoblue assay; assay type: functional, cell-based; conditions: ASPC1, 72 h
[6] = target: Cyclin-dependent kinase 2/cyclin E1 (Homo sapiens, UniProt P24941); assay: Inhibition of CDK2/CyclinE (unknown origin) in presence of ATP; assay type: protein-complex assay
[7] = target: Cyclin-dependent kinase 5/CDK5 activator 1 (Homo sapiens, UniProt Q00535); assay: Inhibition of CDK5/p35 (unknown origin) in presence of ATP; assay type: protein-complex assay
[8] = target: Cyclin-dependent kinase 9 (Homo sapiens, UniProt P50750); assay: Inhibition of CDK9 (unknown origin)
[9] = target: Tyrosine-protein kinase BTK (Homo sapiens, UniProt Q06187); assay: Inhibition of BTK (unknown origin)
[10] = target: T1, Inhibitor of nuclear factor kappa-B kinase subunit beta (Homo sapiens, UniProt O14920); assay: Inhibition of IKKbeta (unknown origin)
T1 sequence (O14920 whole entry): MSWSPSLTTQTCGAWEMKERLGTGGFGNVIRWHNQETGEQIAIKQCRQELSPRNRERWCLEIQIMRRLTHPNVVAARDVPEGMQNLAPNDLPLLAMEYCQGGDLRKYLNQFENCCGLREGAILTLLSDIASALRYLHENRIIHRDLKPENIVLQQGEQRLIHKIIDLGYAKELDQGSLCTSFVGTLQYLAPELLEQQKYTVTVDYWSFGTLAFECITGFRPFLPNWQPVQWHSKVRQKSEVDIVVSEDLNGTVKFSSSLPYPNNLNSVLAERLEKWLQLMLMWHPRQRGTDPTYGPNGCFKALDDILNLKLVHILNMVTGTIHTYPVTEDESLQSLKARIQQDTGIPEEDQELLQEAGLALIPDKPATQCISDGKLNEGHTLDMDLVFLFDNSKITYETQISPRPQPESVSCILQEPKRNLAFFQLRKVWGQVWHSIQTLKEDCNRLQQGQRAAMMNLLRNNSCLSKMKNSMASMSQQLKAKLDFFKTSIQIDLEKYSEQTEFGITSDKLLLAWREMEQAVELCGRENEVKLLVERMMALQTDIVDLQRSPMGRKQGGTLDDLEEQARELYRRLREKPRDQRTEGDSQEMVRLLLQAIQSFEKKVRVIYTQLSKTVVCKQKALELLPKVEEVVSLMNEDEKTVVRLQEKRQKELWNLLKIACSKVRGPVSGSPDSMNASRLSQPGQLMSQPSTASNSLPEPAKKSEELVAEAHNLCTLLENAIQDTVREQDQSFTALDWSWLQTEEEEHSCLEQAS

Aurora kinase A = target: T2, Aurora kinase A (Homo sapiens, UniProt O14965); assay: Inhibition of Aurora A (unknown origin)
T2 sequence (O14965 whole entry): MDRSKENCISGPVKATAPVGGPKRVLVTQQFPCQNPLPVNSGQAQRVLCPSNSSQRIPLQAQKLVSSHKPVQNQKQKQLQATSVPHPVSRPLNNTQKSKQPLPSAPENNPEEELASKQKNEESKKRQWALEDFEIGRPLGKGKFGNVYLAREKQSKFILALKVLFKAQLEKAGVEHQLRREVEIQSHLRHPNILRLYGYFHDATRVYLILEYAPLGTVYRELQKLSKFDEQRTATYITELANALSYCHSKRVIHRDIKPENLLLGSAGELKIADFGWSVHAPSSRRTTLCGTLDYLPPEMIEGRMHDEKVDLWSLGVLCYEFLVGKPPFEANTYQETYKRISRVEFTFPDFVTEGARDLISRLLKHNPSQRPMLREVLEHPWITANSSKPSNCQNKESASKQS

Aurora kinase B = Aurora kinase B (Homo sapiens, UniProt Q96GD4); assay: Inhibition of Aurora B (unknown origin)
[11] = target: T3, Mitogen-activated protein kinase kinase kinase 12 (Homo sapiens, UniProt Q12852); assay: Inhibition of DLK (unknown origin)
T3 sequence (Q12852 whole entry): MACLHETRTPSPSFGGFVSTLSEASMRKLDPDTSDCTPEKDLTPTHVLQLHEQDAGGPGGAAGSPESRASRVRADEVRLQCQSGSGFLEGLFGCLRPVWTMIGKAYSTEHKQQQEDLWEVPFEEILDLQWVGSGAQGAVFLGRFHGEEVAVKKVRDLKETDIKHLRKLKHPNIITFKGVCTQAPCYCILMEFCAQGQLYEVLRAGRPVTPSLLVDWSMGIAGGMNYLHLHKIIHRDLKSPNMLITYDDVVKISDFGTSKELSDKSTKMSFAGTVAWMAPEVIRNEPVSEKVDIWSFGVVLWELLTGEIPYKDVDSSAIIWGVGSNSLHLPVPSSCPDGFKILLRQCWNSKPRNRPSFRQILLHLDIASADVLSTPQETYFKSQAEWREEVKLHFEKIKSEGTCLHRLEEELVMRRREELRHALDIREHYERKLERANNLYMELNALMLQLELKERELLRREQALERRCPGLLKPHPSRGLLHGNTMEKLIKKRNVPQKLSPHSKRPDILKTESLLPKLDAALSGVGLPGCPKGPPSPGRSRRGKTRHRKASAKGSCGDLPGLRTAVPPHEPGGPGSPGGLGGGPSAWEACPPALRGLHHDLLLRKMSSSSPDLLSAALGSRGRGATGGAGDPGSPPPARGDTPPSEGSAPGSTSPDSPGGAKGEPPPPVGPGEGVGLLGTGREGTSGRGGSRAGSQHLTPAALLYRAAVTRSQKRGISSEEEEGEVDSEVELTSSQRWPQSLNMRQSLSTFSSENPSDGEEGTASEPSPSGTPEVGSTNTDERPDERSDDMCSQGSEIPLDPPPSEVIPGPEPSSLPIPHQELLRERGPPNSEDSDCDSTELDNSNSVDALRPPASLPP

[12] = target: T4, Tyrosine-protein kinase ITK/TSK (Homo sapiens, UniProt Q08881); assay: Inhibition of ITK (unknown origin)
T4 sequence (Q08881 whole entry): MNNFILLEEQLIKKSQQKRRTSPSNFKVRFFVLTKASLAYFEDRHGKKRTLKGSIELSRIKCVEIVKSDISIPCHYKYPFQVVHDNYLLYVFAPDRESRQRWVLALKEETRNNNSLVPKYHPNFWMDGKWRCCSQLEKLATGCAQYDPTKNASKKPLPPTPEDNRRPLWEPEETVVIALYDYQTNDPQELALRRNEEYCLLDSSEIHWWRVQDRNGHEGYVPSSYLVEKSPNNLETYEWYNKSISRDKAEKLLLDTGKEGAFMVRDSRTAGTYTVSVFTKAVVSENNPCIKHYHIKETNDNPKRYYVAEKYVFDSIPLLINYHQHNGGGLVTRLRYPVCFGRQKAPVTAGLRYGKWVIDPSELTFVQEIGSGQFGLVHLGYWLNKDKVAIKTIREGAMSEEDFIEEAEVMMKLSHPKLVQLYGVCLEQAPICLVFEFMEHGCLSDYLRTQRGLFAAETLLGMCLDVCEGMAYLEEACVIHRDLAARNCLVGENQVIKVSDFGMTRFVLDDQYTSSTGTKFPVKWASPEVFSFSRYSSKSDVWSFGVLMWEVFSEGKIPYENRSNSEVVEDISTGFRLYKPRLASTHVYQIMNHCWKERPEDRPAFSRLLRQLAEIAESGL

[13] = target: Mitogen-activated protein kinase 10 (Homo sapiens, UniProt P53779); assay: Inhibition of JNK3 (unknown origin) after 22 mins by homogeneous time-resolved fluorescence assay
[14] = target: Mitogen-activated protein kinase 14 (Homo sapiens, UniProt Q16539); assay: Inhibition of MAPK14 (unknown origin) after 22 mins by homogeneous time-resolved fluorescence assay
[15] = target: Serine/threonine-protein kinase PAK 1 (Homo sapiens, UniProt Q13153); assay: Inhibition of PAK1 (unknown origin)
[16] = target: High affinity nerve growth factor receptor (Homo sapiens, UniProt P04629); assay: Inhibition of TRKA (unknown origin)
[17] = target: Leucine-rich repeat serine/threonine-protein kinase 2 (Homo sapiens, UniProt Q5S007); assay: Inhibition of LRRK2 (unknown origin)
Homo sapiens [18] = species on record: Homo sapiens; assay: Selectivity ratio of IC50 for CDK9 (unknown origin) to IC50 for CDK2/CyclinE (unknown origin)
Homo sapiens [19] = species on record: Homo sapiens; assay: Selectivity ratio of IC50 for CDK9 (unknown origin) to IC50 for CDK5/p35 (unknown origin)

Chain of Cyclin-dependent kinase 5/CDK5 activator 1 (Homo sapiens) (Q00535 whole entry): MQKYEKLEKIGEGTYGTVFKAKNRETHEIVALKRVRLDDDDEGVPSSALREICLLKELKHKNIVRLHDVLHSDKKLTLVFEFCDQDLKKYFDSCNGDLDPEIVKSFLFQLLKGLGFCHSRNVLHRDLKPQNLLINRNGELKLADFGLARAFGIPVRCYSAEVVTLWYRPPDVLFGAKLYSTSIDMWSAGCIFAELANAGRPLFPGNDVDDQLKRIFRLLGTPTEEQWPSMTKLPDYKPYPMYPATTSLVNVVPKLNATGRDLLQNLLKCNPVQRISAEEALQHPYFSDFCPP
Chain of Cyclin-dependent kinase 5/CDK5 activator 1 (Homo sapiens) (Q15078 99-307 partner limits assumed): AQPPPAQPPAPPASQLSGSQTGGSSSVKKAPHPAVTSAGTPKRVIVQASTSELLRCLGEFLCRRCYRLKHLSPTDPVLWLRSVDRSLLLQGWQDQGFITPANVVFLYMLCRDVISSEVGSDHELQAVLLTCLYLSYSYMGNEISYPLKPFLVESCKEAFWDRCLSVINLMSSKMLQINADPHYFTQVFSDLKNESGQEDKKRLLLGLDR
Chain of Aurora kinase B (Q96GD4 whole entry): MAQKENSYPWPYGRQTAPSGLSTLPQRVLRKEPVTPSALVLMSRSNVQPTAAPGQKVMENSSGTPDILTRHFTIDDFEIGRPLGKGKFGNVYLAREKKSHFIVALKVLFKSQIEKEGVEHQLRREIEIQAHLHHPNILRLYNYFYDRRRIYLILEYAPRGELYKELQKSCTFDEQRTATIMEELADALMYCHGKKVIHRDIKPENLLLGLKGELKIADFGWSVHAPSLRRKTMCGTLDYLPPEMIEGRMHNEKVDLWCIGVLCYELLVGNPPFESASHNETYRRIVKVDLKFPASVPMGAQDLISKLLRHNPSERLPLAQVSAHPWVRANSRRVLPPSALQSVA
Chain of Mitogen-activated protein kinase 14 (Q16539 whole entry): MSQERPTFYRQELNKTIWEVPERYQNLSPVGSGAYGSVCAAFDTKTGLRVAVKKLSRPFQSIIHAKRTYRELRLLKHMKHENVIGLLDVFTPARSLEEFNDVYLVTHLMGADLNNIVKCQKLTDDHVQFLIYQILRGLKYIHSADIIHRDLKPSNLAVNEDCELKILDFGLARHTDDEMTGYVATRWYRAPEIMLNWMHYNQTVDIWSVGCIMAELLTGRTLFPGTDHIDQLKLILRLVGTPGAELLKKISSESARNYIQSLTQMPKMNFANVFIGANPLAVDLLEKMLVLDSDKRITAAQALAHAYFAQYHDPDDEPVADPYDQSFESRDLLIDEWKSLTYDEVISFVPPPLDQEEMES
Chain of High affinity nerve growth factor receptor (P04629 whole entry): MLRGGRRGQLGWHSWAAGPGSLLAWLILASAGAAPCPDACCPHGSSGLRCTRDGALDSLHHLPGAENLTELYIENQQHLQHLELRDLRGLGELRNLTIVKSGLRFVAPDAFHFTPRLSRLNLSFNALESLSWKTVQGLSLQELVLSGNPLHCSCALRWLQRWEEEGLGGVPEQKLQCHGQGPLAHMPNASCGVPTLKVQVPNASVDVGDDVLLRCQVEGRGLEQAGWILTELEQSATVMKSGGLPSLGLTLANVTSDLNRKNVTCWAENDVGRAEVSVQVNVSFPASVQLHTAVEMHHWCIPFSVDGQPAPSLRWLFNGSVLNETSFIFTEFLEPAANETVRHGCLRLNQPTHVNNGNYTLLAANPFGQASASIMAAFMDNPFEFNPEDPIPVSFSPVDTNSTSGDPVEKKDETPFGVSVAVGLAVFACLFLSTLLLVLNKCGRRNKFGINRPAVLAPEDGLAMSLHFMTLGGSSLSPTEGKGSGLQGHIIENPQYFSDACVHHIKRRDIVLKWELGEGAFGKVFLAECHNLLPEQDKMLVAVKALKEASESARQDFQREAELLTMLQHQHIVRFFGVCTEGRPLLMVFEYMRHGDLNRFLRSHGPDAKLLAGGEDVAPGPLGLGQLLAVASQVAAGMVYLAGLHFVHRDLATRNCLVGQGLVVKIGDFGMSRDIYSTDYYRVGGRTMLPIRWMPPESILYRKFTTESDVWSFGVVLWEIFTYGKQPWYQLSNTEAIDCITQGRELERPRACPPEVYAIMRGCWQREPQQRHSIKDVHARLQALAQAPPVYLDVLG
Chain of Tyrosine-protein kinase BTK (Q06187 whole entry): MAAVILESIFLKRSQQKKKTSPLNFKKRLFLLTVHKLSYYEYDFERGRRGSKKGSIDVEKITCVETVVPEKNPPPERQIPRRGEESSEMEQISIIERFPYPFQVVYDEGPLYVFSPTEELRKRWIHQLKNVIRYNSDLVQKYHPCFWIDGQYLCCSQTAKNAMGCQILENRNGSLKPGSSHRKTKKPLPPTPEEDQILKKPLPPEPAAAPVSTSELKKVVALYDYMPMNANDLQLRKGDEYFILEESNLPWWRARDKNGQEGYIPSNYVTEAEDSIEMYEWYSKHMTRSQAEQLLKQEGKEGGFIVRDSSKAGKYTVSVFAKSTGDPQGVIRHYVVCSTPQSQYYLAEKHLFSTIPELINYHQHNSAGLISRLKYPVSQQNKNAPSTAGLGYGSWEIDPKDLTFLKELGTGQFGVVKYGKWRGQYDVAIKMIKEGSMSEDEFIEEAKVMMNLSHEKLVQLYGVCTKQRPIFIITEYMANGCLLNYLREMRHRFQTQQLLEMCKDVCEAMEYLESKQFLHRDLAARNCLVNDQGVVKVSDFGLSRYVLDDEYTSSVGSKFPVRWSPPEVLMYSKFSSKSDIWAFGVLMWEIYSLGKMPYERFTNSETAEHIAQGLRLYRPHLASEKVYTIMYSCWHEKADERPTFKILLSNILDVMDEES
Chain of Serine/threonine-protein kinase PAK 1 (Q13153 whole entry): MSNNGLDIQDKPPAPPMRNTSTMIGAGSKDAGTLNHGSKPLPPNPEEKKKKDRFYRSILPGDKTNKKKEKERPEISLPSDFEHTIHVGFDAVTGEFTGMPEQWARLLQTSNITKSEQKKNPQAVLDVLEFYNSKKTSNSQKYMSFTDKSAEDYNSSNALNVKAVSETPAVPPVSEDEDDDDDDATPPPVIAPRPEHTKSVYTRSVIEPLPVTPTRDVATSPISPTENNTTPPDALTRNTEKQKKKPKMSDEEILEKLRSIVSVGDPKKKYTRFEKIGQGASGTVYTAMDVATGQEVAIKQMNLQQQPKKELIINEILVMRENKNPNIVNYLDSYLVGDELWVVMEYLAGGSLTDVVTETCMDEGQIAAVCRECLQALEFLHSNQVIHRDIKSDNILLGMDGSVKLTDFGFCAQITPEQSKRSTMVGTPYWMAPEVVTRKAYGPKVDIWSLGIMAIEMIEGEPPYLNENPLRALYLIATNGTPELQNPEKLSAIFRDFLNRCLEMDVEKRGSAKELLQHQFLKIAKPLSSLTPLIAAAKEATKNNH
Chain of Mitogen-activated protein kinase 10 (P53779 whole entry): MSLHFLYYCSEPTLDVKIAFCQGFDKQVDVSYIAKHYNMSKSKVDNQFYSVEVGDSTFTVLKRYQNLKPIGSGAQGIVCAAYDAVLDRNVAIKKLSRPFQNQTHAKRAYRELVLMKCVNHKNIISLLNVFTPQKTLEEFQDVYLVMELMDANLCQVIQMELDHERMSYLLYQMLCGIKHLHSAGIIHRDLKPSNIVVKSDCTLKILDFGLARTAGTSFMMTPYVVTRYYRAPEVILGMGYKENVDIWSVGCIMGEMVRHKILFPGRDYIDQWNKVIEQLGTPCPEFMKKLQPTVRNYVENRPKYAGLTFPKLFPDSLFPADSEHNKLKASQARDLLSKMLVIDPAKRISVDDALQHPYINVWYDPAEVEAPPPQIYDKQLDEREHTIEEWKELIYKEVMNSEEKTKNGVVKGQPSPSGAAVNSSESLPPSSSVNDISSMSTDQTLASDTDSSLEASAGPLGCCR
Chain of Cyclin-dependent kinase 5/CDK5 activator 1 (Q00535 whole entry): as the sequence (Q00535 whole entry) above
Chain of Cyclin-dependent kinase 5/CDK5 activator 1 (Q15078 whole entry, further chain): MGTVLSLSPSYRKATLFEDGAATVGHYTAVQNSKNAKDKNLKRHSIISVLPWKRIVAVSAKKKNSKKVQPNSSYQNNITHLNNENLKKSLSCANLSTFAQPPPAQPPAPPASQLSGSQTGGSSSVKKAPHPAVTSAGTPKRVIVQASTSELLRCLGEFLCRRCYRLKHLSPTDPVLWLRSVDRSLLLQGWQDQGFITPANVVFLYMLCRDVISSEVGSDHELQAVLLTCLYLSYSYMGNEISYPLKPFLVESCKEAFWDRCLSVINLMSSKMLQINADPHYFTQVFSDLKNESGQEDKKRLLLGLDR
Chain of Cyclin-dependent kinase 9 (P50750 whole entry): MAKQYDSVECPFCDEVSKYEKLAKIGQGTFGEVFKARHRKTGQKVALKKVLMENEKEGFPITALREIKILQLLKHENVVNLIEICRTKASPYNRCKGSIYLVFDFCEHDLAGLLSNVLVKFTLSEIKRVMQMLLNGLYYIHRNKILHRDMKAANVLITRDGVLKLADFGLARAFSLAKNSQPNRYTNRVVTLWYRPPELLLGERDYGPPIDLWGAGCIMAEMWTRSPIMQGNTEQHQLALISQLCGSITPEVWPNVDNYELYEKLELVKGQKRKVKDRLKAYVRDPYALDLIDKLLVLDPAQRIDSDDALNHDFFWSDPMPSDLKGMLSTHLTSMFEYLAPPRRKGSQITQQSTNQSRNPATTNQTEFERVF

Q: With O=C(Cc1ccc2ccccc2c1)Nc1cc(C2CC2)n[nH]1 as the molecule, how does the inhibition [1] read?
A: The inhibition was > 90%.

Q: And the “fold change (FC)” value (MIA PaCa-2 [2])?
A: Its value is <2.

Q: With Cc1cc(NC(=O)Cc2ccc3ccccc3c2)n[nH]1 as the molecule, how does the inhibition [1] read?
A: Its inhibition is > 90%.

Q: And the “fold change (FC)” value (MIA PaCa-2 [2])?
A: The value was <2.

Q: Which results are given for O=C(NC1CCNCC1)c1n[nH]cc1NC(=O)c1c(Cl)cccc1Cl [AT-7519]?
A: IC50 (BXPC-3): 640 nM; IC50 (MIA PaCa-2 [3]): 411 nM; IC50 [4]: 557 nM; IC50 [5]: 2770 nM

Q: For O=C(Cc1ccc2c(c1)OCCO2)Nc1cc(C2CCC2)[nH]n1, which inhibition [1] is on record?
A: Its inhibition is > 90%.

Q: What about the “fold change (FC)” value (MIA PaCa-2 [2]) of the same molecule?
A: The value was <2.

Q: What does the source list for Cc1cc(NC(=O)Cc2ccc3c(c2)OCCO3)n[nH]1?
A: inhibition [1]: > 90%; fold change (FC) (MIA PaCa-2 [2]): <2

Q: With O=C(Cc1ccc2ccccc2c1)Nc1cc(C2CCC2)[nH]n1 as the molecule, how does the inhibition [1] read?
A: Its inhibition is > 90%.

Q: And the “fold change (FC)” value (MIA PaCa-2 [2])?
A: Its value is >2.

Q: And the IC50 (ASPC1)?
A: Its IC50 is 1160 nM.

Q: And the IC50 (BXPC-3)?
A: The IC50 was > 2000 nM.

Q: And the IC50 [4]?
A: Its IC50 is > 2000 nM.

Q: What about the IC50 [5] of the same molecule?
A: Its IC50 is 875 nM.

Q: Which inhibition [1] does the source give for Cc1cc(NC(=O)C/C=C/c2ccccc2)n[nH]1 here?
A: The inhibition was > 90%.

Q: What about the “fold change (FC)” value (MIA PaCa-2 [2]) of the same molecule?
A: The value was <2.

Q: For O=C(C/C=C/c1ccccc1)Nc1cc(C2CCCC2)[nH]n1, which inhibition [1] is on record?
A: Its inhibition is > 90%.

Q: And the “fold change (FC)” value (MIA PaCa-2 [2])?
A: Its value is <2.

Q: With O=C(Cc1ccc2c(c1)OCCO2)Nc1cc(C2CCCC2)[nH]n1 as the molecule, how does the inhibition [1] read?
A: The inhibition was > 90%.

Q: And the “fold change (FC)” value (MIA PaCa-2 [2])?
A: The value was <2.

Q: Which results are given for O=C(Cc1ccc(-c2ccccc2)cc1)Nc1cc(C2CCC2)[nH]n1?
A: inhibition [1]: > 90%; fold change (FC) (MIA PaCa-2 [2]): >2; IC50 (ASPC1): 315 nM; IC50 (MIA PaCa-2 [3]): 247 nM; IC50 [4]: 209 nM; IC50 [5]: 192 nM; IC50 [6]: 24 nM; IC50 [7]: 23 nM; IC50 [8]: 911 nM; IC50 [9]: > 10000 nM; IC50 [10]: > 10000 nM; IC50 (Aurora kinase A): > 10000 nM; IC50 (Aurora kinase B): > 10000 nM; IC50 [11]: > 10000 nM; IC50 [12]: > 10000 nM; IC50 [13]: > 10000 nM; IC50 [14]: > 10000 nM; IC50 [15]: > 10000 nM; IC50 [16]: > 10000 nM; IC50 [17]: > 10000 nM; Ratio IC50 (Homo sapiens [18]): > 35; Ratio IC50 (Homo sapiens [19]): > 35

Q: For O=C(C/C=C/c1ccccc1)Nc1cc(C2CCC2)[nH]n1, which inhibition [1] is on record?
A: Its inhibition is > 90%.

Q: And the “fold change (FC)” value (MIA PaCa-2 [2])?
A: Its value is >2.

Q: What about the IC50 (ASPC1) of the same molecule?
A: Its IC50 is > 2000 nM.

Q: What about the IC50 (BXPC-3) of the same molecule?
A: Its IC50 is > 2000 nM.

Q: What about the IC50 (MIA PaCa-2 [3]) of the same molecule?
A: The IC50 was 1560 nM.

Q: And the IC50 [4]?
A: Its IC50 is > 2000 nM.

Q: And the IC50 [5]?
A: Its IC50 is 1470 nM.

Q: What does the source list for O=C(Cc1ccc2c(c1)OCCO2)Nc1cc(-c2ccccc2)[nH]n1?
A: inhibition [1]: > 90%; fold change (FC) (MIA PaCa-2 [2]): <2

Q: For COc1ccc(CC(=O)Nc2n[nH]c3ccccc23)cc1OC, which inhibition [1] is on record?
A: The inhibition was > 90%.

Q: And the “fold change (FC)” value (MIA PaCa-2 [2])?
A: The value was <2.

Q: Which results are given for COc1ccc(CC(=O)Nc2cc(C3CCC3)[nH]n2)cc1OC?
A: inhibition [1]: > 90%; fold change (FC) (MIA PaCa-2 [2]): <2

Q: Which results are given for O=C(C/C=C/c1ccccc1)Nc1n[nH]c2ccccc12?
A: inhibition [1]: > 90%; fold change (FC) (MIA PaCa-2 [2]): <2
